Measured values published in patent publication US10450356B2, “PRAME derived peptides and immunogenic compositions comprising these” (Academisch Ziekenhuis Leiden H.O.D.N. LUMC, priority 2007, dated 2019).
Where a SMILES comes first, the peptide text is derived from it.

Target: T1, 20S proteasomes purified from a B-LCL cell line (immunoproteasomes) (Homo sapiens, UniProt P28062+P28065+P40306)
T1 construct: 20S proteasomes were purified from a B-LCL cell line; endogenous in cells; purified after Groettrup et al. 1995
Assay: In vitro proteasome mediated cleavage analysis
Assay type: biochemical
Parameters: key to Intact in fragment / Intact Fragment: intact epitope found in digestion fragments: (+), present; (-), not present; key to Processing C-term: generation by proteasome-mediated digestion of fragments containing the correct C-terminus: (++) fragments present for >5%; (+) present for <5%; (-) no fragments containing the C-term. were found
Conditions: for Processing C-term: generation by proteasome-mediated digestion of fragments containing the correct C-terminus: 1 h digestion; for Intact Fragment: intact epitope found in digestion fragments: after 1 h digestion; for C-term. generation: generation of C-terminus of the epitope after 1 h digestion; for Intact in fragment: intact epitope found in digestion fragments after 1 h digestion
Method: 20S proteasomes were purified from a B-LCL cell line as described by Groettrup et al. (J. Biol. Chem. 270:23808-23815; 1995). This cell type is known to contain immunoproteasomes. High LMP2 and 7 content was confirmed by 2-D immuno-blotting. To assess kinetics, digestions were performed with different incubation periods. Peptides (27 mers, 20 μg) were incubated with 1 μg of purified proteasome at 37° C. for 1 h, 4 h and 24 h in 300 μl proteasome digestion buffer as described (Eggers, et al. 1995. J. Exp. Med. 182:1865). Trifluoroacetic acid was added to stop the digestion and samples were stored at −20° C. before mass spectrometric analysis.
Electrospray ionization mass spectrometry was performed on a hybrid quadrupole time-of-flight mass spectrometer, a Q-TOF (Micromass), equipped with an on-line nanoelectrospray interface with an approximate flow rate of 250 nL/min. Injections were done with a dedicated micro/nano HPLC autosampler, the FAMOS (LC Packings). Digestion solutions were diluted five times in water-methanol-acetic acid (95:5:1, v/v/v), and trapped on the precolumn (MCA-300-05-C8; LC Packings) in water-methanol-acetic acid (95:5:1, v/v/v). Washing of the precolumn was done for 3 min to remove the buffers present in the digests. Subsequently, the trapped analytes were eluted with a steep gradient going from 70% B to 90% B in 10 min, with a flow of 250 nl/min (A: water-methanol-acetic acid (95:5:1, v/v/v); B: water-methanol-acetic acid (10:90:1, v/v/v)). This low elution rate allows for a few additional MS/MS experiments if necessary during the same elution. Mass spectra were recorded from mass 50-2000 Da every second. The resolution allows direct determination of the monoisotopic mass, also from multiple charged ions. The peaks in the mass spectrum were searched in the digested precursor peptide using the Biolynx/proteins software (Micromass). The intensity of the peaks in the mass spectra was used to establish the relative amounts of peptides generated by proteasome digestion.

Processing C-term: generation by proteasome-mediated digestion of fragments containing the correct C-terminus	Intact Fragment: intact epitope found in digestion fragments	C-term. generation	Intact in fragment	SMILES
-	-			CC(C)C[C@H](NC(=O)[C@H](CO)NC(=O)[C@H](C)NC(=O)[C@H](CCCNC(=N)N)NC(=O)[C@H](CC(N)=O)NC(=O)CNC(=O)[C@H](CO)NC(=O)[C@@H](N)Cc1c[nH]c2ccccc12)C(=O)N[C@@H](Cc1ccc(O)cc1)C(=O)O
-	-			CC(C)C[C@H](NC(=O)[C@H](CO)NC(=O)[C@H](CCC(N)=O)NC(=O)CNC(=O)[C@H](C)NC(=O)[C@H](CC(C)C)NC(=O)[C@H](CCC(=O)O)NC(=O)[C@@H](NC(=O)[C@H](CC(C)C)NC(=O)[C@@H](N)CCCNC(=N)N)C(C)C)C(=O)O
-	-			CC(C)C[C@H](NC(=O)[C@H](CC(C)C)NC(=O)[C@H](CO)NC(=O)[C@H](CCC(N)=O)NC(=O)CNC(=O)[C@H](C)NC(=O)[C@H](CC(C)C)NC(=O)[C@@H](N)CCC(=O)O)C(=O)N[C@@H](CCCCN)C(=O)O
+ ((+) present for <5%)	-			CC(C)C[C@H](NC(=O)[C@@H](NC(=O)[C@H](Cc1c[nH]cn1)NC(=O)[C@@H](NC(=O)[C@H](CC(C)C)NC(=O)[C@H](CC(N)=O)NC(=O)[C@H](CO)NC(=O)[C@H](CC(C)C)NC(=O)CN)[C@@H](C)O)C(C)C)C(=O)O
-	-			CC[C@H](C)[C@H](NC(=O)[C@H](C)NC(=O)[C@H](CC(C)C)NC(=O)[C@H](C)N)C(=O)N[C@@H](C)C(=O)N[C@@H](C)C(=O)N[C@@H](CC(C)C)C(=O)N[C@@H](CCC(=O)O)C(=O)N[C@@H](CC(C)C)C(=O)O
-	-			CSCC[C@H](NC(=O)[C@H](CC(C)C)NC(=O)[C@@H](N)C(C)C)C(=O)N[C@@H](CCCCN)C(=O)NCC(=O)N[C@@H](CCC(N)=O)C(=O)N[C@@H](Cc1c[nH]cn1)C(=O)N[C@@H](CC(C)C)C(=O)N[C@@H](Cc1c[nH]cn1)C(=O)N[C@@H](CC(C)C)C(=O)O
++ ((++) fragments present for >5%)	+	++ (abundant (++) present for >5%)	+	CC[C@H](C)[C@H](NC(=O)[C@H](C)NC(=O)[C@H](CC(C)C)NC(=O)[C@H](C)NC(=O)[C@H](CCC(=O)O)NC(=O)[C@H](CC(=O)O)NC(=O)[C@H](CCCCN)NC(=O)[C@H](CC(C)C)NC(=O)[C@@H](N)CC(C)C)C(=O)O
-	-			CC[C@H](C)[C@H](NC(=O)[C@H](CC(=O)O)NC(=O)[C@H](CCC(N)=O)NC(=O)[C@H](CCSC)NC(=O)[C@@H]1CCCN1C(=O)[C@H](CCSC)NC(=O)[C@H](C)NC(=O)[C@H](Cc1ccccc1)NC(=O)[C@@H](NC(=O)[C@@H](N)CCCCN)[C@@H](C)CC)C(=O)O
-	-			CC(C)C[C@H](NC(=O)[C@H](Cc1ccc(O)cc1)NC(=O)[C@H](C)NC(=O)[C@H](CC(C)C)NC(=O)[C@H](CCCNC(=N)N)NC(=O)[C@H](CCC(=O)O)NC(=O)[C@H](CC(C)C)NC(=O)[C@H](Cc1c[nH]cn1)NC(=O)[C@H](CC(C)C)NC(=O)[C@@H](N)[C@@H](C)O)C(=O)O
-	-			CC(C)C[C@H](NC(=O)[C@H](CCCNC(=N)N)NC(=O)[C@H](CCC(=O)O)NC(=O)[C@H](CC(C)C)NC(=O)[C@H](Cc1c[nH]cn1)NC(=O)[C@H](CC(C)C)NC(=O)[C@@H](N)[C@@H](C)O)C(=O)N[C@@H](C)C(=O)N[C@@H](Cc1ccc(O)cc1)C(=O)O
-	-			CC[C@H](C)[C@H](NC(=O)[C@@H]1CCCN1C(=O)[C@@H](N)CCC(=O)O)C(=O)N[C@@H](CC(C)C)C(=O)N[C@@H](CS)C(=O)N1CCC[C@H]1C(=O)N[C@@H](CS)C(=O)N[C@@H](Cc1ccccc1)C(=O)N[C@@H](CCSC)C(=O)O (H-EPILCPCFM-OH)
+ ((+) present for <5%)	+	+ (low abundant (+) present for <5%)	+	CC(C)C[C@H](NC(=O)[C@@H](NC(=O)[C@H](CCC(N)=O)NC(=O)[C@H](CO)NC(=O)[C@H](Cc1c[nH]cn1)NC(=O)[C@H](CCCNC(=N)N)NC(=O)CNC(=O)[C@H](CC(=O)O)NC(=O)[C@H](Cc1ccccc1)NC(=O)[C@H](C)N)[C@@H](C)O)C(=O)O
-	-			CSCC[C@H](NC(=O)[C@H](CO)NC(=O)[C@@H]1CCCN1C(=O)[C@H](CCCNC(=N)N)NC(=O)CNC(=O)[C@H](CC(C)C)NC(=O)[C@H](CCC(=O)O)NC(=O)[C@H](CS)NC(=O)[C@H](CC(C)C)NC(=O)[C@@H](N)CC(C)C)C(=O)O
-	-			CC[C@H](C)[C@H](NC(=O)[C@H](CC(C)C)NC(=O)[C@H](Cc1ccc(O)cc1)NC(=O)[C@H](CO)NC(=O)[C@H](Cc1ccccc1)NC(=O)[C@H](CC(C)C)NC(=O)[C@@H](N)CCC(=O)O)C(=O)N[C@@H](CCC(=O)O)C(=O)N[C@@H](CCCCN)C(=O)N[C@H](C(=O)O)C(C)C
-	-			CSCC[C@H](NC(=O)[C@H](C)N)C(=O)N[C@H](C(=O)N[C@@H](CCC(N)=O)C(=O)N[C@@H](C)C(=O)N[C@@H](Cc1c[nH]c2ccccc12)C(=O)N1CCC[C@H]1C(=O)N[C@@H](Cc1ccccc1)C(=O)N[C@H](C(=O)N[C@@H](CS)C(=O)O)[C@@H](C)O)C(C)C
+ ((+) present for <5%)	+	+ (low abundant (+) present for <5%)	+	CC(C)C[C@H](NC(=O)[C@@H]1CCCN1C(=O)[C@H](CCC(=O)O)NC(=O)[C@@H]1CCCN1C(=O)[C@H](CO)NC(=O)[C@@H](NC(=O)[C@H](CC(=O)O)NC(=O)[C@@H](NC(=O)[C@@H](N)CC(C)C)[C@@H](C)O)C(C)C)C(=O)N[C@@H](CCC(N)=O)C(=O)O
-	-			CC(C)C[C@H](NC(=O)[C@H](Cc1ccc(O)cc1)NC(=O)[C@H](CO)NC(=O)[C@H](Cc1ccccc1)NC(=O)[C@H](CC(C)C)NC(=O)[C@H](CCC(=O)O)NC(=O)[C@H](CC(=O)O)NC(=O)[C@H](CS)NC(=O)[C@H](C)NC(=O)CN)C(=O)O
